Structures are written as SMILES.

One assay has as its target T1, CCK-B receptors (Cavia porcellus, UniProt H0VZC5).
T1 construct: Cerebral cortices were removed from Hartley-strain guinea pigs, the cerebral cortices were homogenized; from tissue; host or cells: cerebral cortex of Hartley-strain guinea pigs, crude membrane pellet
T1 sequence (H0VZC5 1-426): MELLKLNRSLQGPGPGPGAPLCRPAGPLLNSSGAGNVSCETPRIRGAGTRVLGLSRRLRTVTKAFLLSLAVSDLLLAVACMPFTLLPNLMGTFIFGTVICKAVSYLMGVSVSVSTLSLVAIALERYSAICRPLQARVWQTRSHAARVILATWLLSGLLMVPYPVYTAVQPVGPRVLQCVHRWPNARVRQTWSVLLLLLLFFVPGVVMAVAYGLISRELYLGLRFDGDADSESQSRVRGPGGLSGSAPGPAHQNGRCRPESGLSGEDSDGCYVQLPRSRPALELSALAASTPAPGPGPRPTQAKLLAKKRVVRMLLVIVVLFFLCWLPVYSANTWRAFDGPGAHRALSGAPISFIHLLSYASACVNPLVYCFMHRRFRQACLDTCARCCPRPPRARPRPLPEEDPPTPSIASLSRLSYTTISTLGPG
Briefly: Measurement of Binding Affinity for CCK-B Receptors. The arrangement: species or system Hartley-strain guinea pig. Particulars: inhibition of specific [3H]CCK-8 (1.0 nM) binding; guinea pig cerebral cortex; 25° C., 2 hours; pH 6.5; read-out: Ki (CCK-B receptors).
Protocol: Cerebral cortices were removed from Hartley-strain guinea pigs, the cerebral cortices were homogenized in 50 volumes of 50 mM Tris-HCl buffer (pH7.4) and centrifuged at 50000×g for 10 minutes. The Tris-HCl buffer was added to the pellet and recentrifuged as above two times. The final pellet was rehomogenized in 10 mM HEPES buffer (pH 6.5, which hereinafter be abbreviated as "solvent") containing 5 mM MgCl2, 1 mM EGTA, 0.25 mg/ml bacitracin and 130 mM NaCl, and used as the receptor preparation.
Binding assay was measured as follows. Fifty μl of [^3 H]CCK-8 (at the final concentration of 1.0 nM) and 900 μl of the receptor preparation (800 μg protein/tube) were added to 50 μl of either solvent, CCK-8 (1 μM) or a test compound. These ware reacted at 25° C. for 2 hours. After the reaction, the mixture was filtrated through Whatman GF/B filter presoaked in 0.1% BSA. The filter was washed with 3 ml of ice-cold 50 mM Tris-HCl buffer (pH 7.4) four times, immediately after the filtration. The filter was soaked in the ACS-II scintillation cocktail for a day and radioactivity was measured using a liquid scintillation counter. Non-specific binding was defined as the radioactivity in the presence of 1 μM CCK-8. Specific binding was defined as the difference between total binding (used solvent without CCK-8) and non-specific binding. Inhibitor dissociation constant (Ki) of each test compound was determined from the inhibition of specific [^3 H]CCK-8 binding.
The term Ki denotes a dissociation constant, usually derived from enzyme kinetics or from competition with a known ligand. For the molecule `Cc1cccc(NC(=O)NC2CN(C(=O)C(C)(C)C)c3ccc(C)cc3N(CC(=O)c3ccccc3C)C2=O)c1` (centres unmarked) [Example 4, 1-[1-(2-toluoylmethyl)-2-oxo-5-pivaloyl-8-methyl-1,3,4,5-tetrahydro-2H-1,5-benzodiazepin-3-yl]-3-(3-methylphenyl)urea], the Ki stood at 1.11 nM. Same read-out and setting: under `CN(C(=O)CN1C(=O)C(NC(=O)Nc2cccc(C(=O)NS(C)(=O)=O)c2)CN(c2ccccc2)c2ccccc21)c1ccccc1` (centres unmarked) [Example 15, 1-[1-(N-phenyl-N-methyl)carbamoylmethyl-2-oxo-5-phenyl-1,3,4,5-tetrahydro-2H-1,5-benzodiazepin-3-yl]-3-(3-methylsulfonylaminocarbonylphenyl)urea] stands 0.99 nM; under `CC(C)(C)OC(=O)CN1C(=O)C(NC(=O)Nc2cccc(C(=O)NS(C)(=O)=O)c2)CN(c2ccccc2)c2ccccc21` (centres unmarked) [Example 16, 1-(1-tert-butoxycarbonylmethyl-2-oxo-5-phenyl-1,3,4,5-tetrahydro-2H-1,5-benzodiazepin-3-yl)-3-(3-methylsulfonylaminocarbonylphenyl)urea], 2.14 nM. In the case of `CC(C)(C)C(=O)CN1C(=O)C(NC(=O)Nc2cccc(OCC(=O)O)c2)CN(c2ccccc2)c2ccccc21` (centres unmarked) [Example 35, 3-[3-(1-tert-butylcarbonylmethyl-2-oxo-5-phenyl-1,3,4,5-tetrahydro-2H-1,5-benzodiazepin-3-yl)ureido]phenoxyacetic acid], the Ki was found to be 0.61 nM. The same measure, in the same setting: under `CC(C)(C)C(=O)CN1C(=O)C(NC(=O)Nc2cccc(C(=O)NS(C)(=O)=O)c2)CN(c2ccccc2)c2ccccc21` (centres unmarked) [Example 46, 1-(1-tert-butylcarbonylmethyl-2-oxo-5-phenyl-1,3,4,5-tetrahydro-2H-1,5-benzodiazepin-3-yl)-3-(3-methylsulfonylaminocarbonylphenyl)urea] stands 0.7 nM; under `COC(=O)N1CC(NC(=O)Nc2cccc(C)c2)C(=O)N(CC(=O)c2ccccc2C)c2ccccc21` (centres unmarked) [Example 49, 1-[1-(2-toluoylmethyl)-2-oxo-5-methoxycarbonyl-1,3,4,5-tetrahydro-2H-1,5-benzodiazepin-3-yl]-3-(3-methylphenyl)urea], 5.02 nM. As to `Cc1ccccc1C(=O)CN1C(=O)C(NC(=O)Nc2cccc(-c3nnn[nH]3)c2)CN(C(=O)C(C)(C)C)c2ccccc21` (centres unmarked) [Example 61, 1-[1-(2-toluoylmethyl)-2-oxo-5-pivaloyl-1,3,4,5-tetrahydro-2H-1,5-benzodiazepin-3-yl]-3-[3-(tetrazol-5-yl)phenyl]urea], the Ki turned out to be 0.98 nM. The same measure, in the same setting: under `Cc1ccccc1C(=O)CN1C(=O)C(NC(=O)Nc2cccc(-c3noc(=O)[nH]3)c2)CN(C(=O)C(C)(C)C)c2ccccc21` (centres unmarked) [Example 62, 1-[1-(2-toluoylmethyl)-2-oxo-5-pivaloyl-1,3,4,5-tetrahydro-2H-1,5-benzodiazepin-3-yl]-3-[3-(5-oxo-4H-1,2,4-oxadiazolin-3-yl)phenyl]urea] stands 0.79 nM; under `Cc1cccc(NC(=O)NC2CN(c3ccccc3)c3ccccc3N(CC(=O)C(C)(C)C)C2=O)c1` (centres unmarked) [Example 71, 1-(1-tert-butylcarbonylmethyl-2-oxo-5-phenyl-1,3,4,5-tetrahydro-2H-1,5-benzodiazepin-3-yl)-3-(3-methylphenyl)urea], 2.88 nM; under `Cc1ccccc1C(=O)CN1C(=O)C(NC(=O)Nc2cccc(CC(=O)O)c2)CN(C(=O)C(C)(C)C)c2ccccc21` (centres unmarked) [Example 72, 3-[3-[1-(2-toluoylmethyl)-2-oxo-5-pivaloyl-1,3,4,5-tetrahydro-2H-1,5-benzodiazepin-3-yl]ureido]phenylacetic acid], 1.57 nM. Regarding `Cc1ccccc1C(=O)CN1C(=O)C(NC(=O)Nc2cccc(SCC(=O)O)c2)CN(C(=O)C(C)(C)C)c2ccccc21` (centres unmarked) [Example 78, 3-[3-[1-(2-toluoylmethyl)-2-oxo-5-pivaloyl-1,3,4,5-tetrahydro-2H-1,5-benzodiazepin-3-yl]ureido]phenylthioacetic acid], the Ki is 0.18 nM. Same read-out and setting: in the case of `CC(C)(C)OC(=O)CN1C(=O)C(NC(=O)Nc2cccc(SCC(=O)O)c2)CN(c2ccccc2)c2ccccc21` (centres unmarked) [Example 81, 3-[3-[1-tert-butoxycarbonylmethyl-2-oxo-5-phenyl-1,3,4,5-tetrahydro-2H-1,5-benzodiazepin-3-yl]ureido]phenylthioacetic acid] it was 0.56 nM. Take `CCC(C)(C)C(=O)N1CC(NC(=O)Nc2cccc(C(=O)O)c2)C(=O)N(CC(=O)c2ccccc2C)c2cc(C)ccc21` (centres unmarked) [Example 93, 3-[3-[1-(2-toluoylmethyl)-2-oxo-5-(2,2-dimethylbutanoyl)-8-methyl-1,3,4,5-tetrahydro-2H-1,5-benzodiazepin-3-yl]ureido]benzoic acid]: the Ki was determined as 1.29 nM. `Cc1ccc2c(c1)N(CC(=O)c1ccccc1C)C(=O)C(NC(=O)Nc1cccc(C(=O)O)c1)CN2C(=O)c1ccccn1` (centres unmarked) [Example 105, 3-[3-[1-(2-toluoylmethyl)-2-oxo-5-(2-pyridylcarbonyl)-8-methyl-1,3,4,5-tetrahydro-2H-1,5-benzodiazepin-3-yl]ureido]benzoic acid]: the inhibition constant (Ki) amounted to 1.33 nM.

`CC(C)(C)C(=O)CN1C(=O)[C@H](NC(=O)Nc2cccc(OC(C)(C)C(=O)O)c2)CN(C2CCCCC2)c2ccccc21` [Example 125, (R)-(-)-2-methyl-2-[3-[3-(1-tert-butylcarbonylmethyl-2-oxo-5-cyclohexyl-1,3,4,5-tetrahydro-2H-1,5-benzodiazepin-3-yl)ureido]phenoxy]propionic acid]: the Ki was found to be 0.43 nM. In the case of `COc1cccc(NC(=O)NC2CN(C3CCCCC3)c3ccccc3N(CC(=O)C(C)(C)C)C2=O)c1` (centres unmarked) [Example 151, 1-(1-tert-butylcarbonylmethyl-2-oxo-5-cyclohexyl-1,3,4,5-tetrahydro-2H-1,5-benzodiazepin-3-yl)-3-(3-methoxyphenyl)urea], the Ki came to 2.86 nM. `CC(C)(C)C(=O)CN1C(=O)[C@H](NC(=O)Nc2cccc(C(=O)O)c2)CN(C[C@@H]2CC[C@H]3C[C@@H]2C3(C)C)c2ccccc21` [Example 157, 3-[3-[(3R)-1-tert-butylcarbonylmethyl-2-oxo-5-[(1S, 2R, 5S)-pinan-10-yl]-1,3,4,5-tetrahydro-2H-1,5-benzodiazepin-3-yl]ureido]benzoic acid]: the Ki came out at 1.97 nM.

A further assay deals with pentagastrin-stimulated acid secretion. Put plainly: Measurement of Inhibition of Pentagastrin-stimulated Acid Secretion. The class given is in vivo, male Sprague-Dawley (SD)-strain rats. Particulars: 30 mg/kg, intraduodenal, rat; acid output from 1 to 4 hours after administration; pentagastrin 15 μg/kg/hr. The protocol: Male Sprague-Dawley (SD)-strain rats were used. Each rat was operated to ligate the pylorus, and equip with a duodenal catheter and gastric fistula under a ether anesthesia. After the operation, each rat was placed in a Bollman-type cage and continuously infused pentagastrin (15 μg/kg/hr) through the tail vein. Test compounds were suspended in 0.5% aqueous sodium carboxymethylcellulose (which hereinafter be abbreviated as "vehicle"). Vehicle or test compound was administered through the intraduodenal catheter 1 hour after the beginning of pentagastrin infusion. Acidity of the collected gastric juice was measured by an automatic titillation device. Acid output was determined by multiplying the volume by the acidity of gastric juice. […] [formula]
The term inhibition in vivo denotes the drop in the measured response relative to a control, in per cent. A high value points to a strong effect. Regarding `Cc1ccc2c(c1)N(CC(=O)c1cccs1)C(=O)C(NC(=O)Nc1cccc(C(=O)O)c1)CN2C(=O)C(C)(C)C` (centres unmarked) [Example 89, 3-[3-[1-(2-Thenoylmethyl)-2-oxo-5-pivaloyl-8-methyl-1,3,4,5-tetrahydro-2H-1,5-benzodiazepin-3-yl]ureido]benzoic acid], testing at 30 mg/kg gave an inhibition in vivo of 87.8%. The same measure, in the same setting: under `Cc1ccc2c(c1)N(CC(=O)c1ccccc1C)C(=O)C(NC(=O)Nc1cccc(C(=O)O)c1)CN2C(=O)c1ccco1` (centres unmarked) [Example 113, 3-[3-[1-(2-toluoylmethyl)-2-oxo-5-(furan-2-ylcarbonyl)-8-methyl-1,3,4,5-tetrahydro-2H-1,5-benzodiazepin-3-yl]ureido]benzoic acid] stands 75.7%; under `Cc1ccc2c(c1)N(CC(=O)C(C)(C)C)C(=O)C(NC(=O)Nc1cccc(C(=O)O)c1)CN2C1CCCCC1` (centres unmarked) [Example 118, 3-[3-(1-tert-butylcarbonylmethyl-2-oxo-5-cyclohexyl-8-methyl-1,3,4,5-tetrahydro-2H-1,5-benzodiazepin-3-yl)ureido]benzoic acid], 88.3%.

The values above are taken from US6239131A, “1,5 Benzodiazepine derivatives” (Zeria Pharmaceutical Co., Ltd., priority 1996, dated 2001).
